# Organism: Rattus norvegicus
# Experiment: DrugMatrix - Regimen: Daily Repeat
# Format: toxicity, organism-based, Sprague-Dawley
# Set-up: regimen Daily Repeat, gender Male, age 6-8 weeks
# Conditions: in vivo, po, route oral GAVAGE, vehicle 100 % WATER; for ABSOLUTE BASOPHIL / ABSOLUTE EOSINOPHIL / ABSOLUTE LYMPHOCYTE / ABSOLUTE MONOCYTE / ABSOLUTE SEGMENTED NEUTROPHIL / BASOPHIL / EOSINOPHIL / ERYTHROCYTE COUNT / HEMATOCRIT / HEMOGLOBIN / LEUKOCYTE COUNT / LYMPHOCYTE / MEAN CORPUSCULAR HEMOGLOBIN / MEAN CORPUSCULAR HEMOGLOBIN CONCENTRATION / MEAN CORPUSCULAR VOLUME / MONOCYTE / NEUTROPHIL / NUCLEATED RED BLOOD CELLS / PLATELET COUNT: tissue Blood; for ALANINE AMINOTRANSFERASE / ALBUMIN / ALKALINE PHOSPHATASE / ASPARTATE AMINOTRANSFERASE / BLOOD UREA NITROGEN / CARBON DIOXIDE / CHLORIDE / CHOLESTEROL / CREATINE PHOSPHOKINASE / CREATININE / GLUCOSE / LACTATE DEHYDROGENASE / LIPASE / PHOSPHORUS / POTASSIUM / SODIUM / TOTAL BILIRUBIN / TOTAL PROTEIN / URIC ACID: tissue Plasma
# [1] = 0 mg/kg, 72 h, dose level Control, time 3 day
# [2] = 0 mg/kg, 120 h, dose level Control, time 5 day
# [3] = 5 mg/kg, 72 h, dose level Low, time 3 day
structure (smiles),measurement,setting,value
C[N+](C)(C)CCOC(N)=O.[Cl-] [CARBACHOL],ABSOLUTE BASOPHIL,[1],0 CELLS/uL
same,ABSOLUTE EOSINOPHIL,[1],0 CELLS/uL
same,ABSOLUTE LYMPHOCYTE,[1],8482.5 CELLS/uL
same,ABSOLUTE MONOCYTE,[1],63.83 CELLS/uL
same,ABSOLUTE SEGMENTED NEUTROPHIL,[1],887 CELLS/uL
same,BASOPHIL,[1],0%
same,EOSINOPHIL,[1],0%
same,ERYTHROCYTE COUNT,[1],5.49 x10E6/uL
same,HEMATOCRIT,[1],34.5%
same,HEMOGLOBIN,[1],13.33 G/DL
same,LEUKOCYTE COUNT,[1],9.43 x10E3/uL
same,LYMPHOCYTE,[1],90.17%
same,MEAN CORPUSCULAR HEMOGLOBIN,[1],24.3 pg
same,MEAN CORPUSCULAR HEMOGLOBIN CONCENTRATION,[1],38.63 G/DL
same,MEAN CORPUSCULAR VOLUME,[1],62.88 fL
same,MONOCYTE,[1],0.67%
same,NEUTROPHIL,[1],9.17%
same,NUCLEATED RED BLOOD CELLS,[1],0.67 /100WBC
same,PLATELET COUNT,[1],1022.83 x10E3/uL
same,ALANINE AMINOTRANSFERASE,[1],50.5 u/L
same,ALBUMIN,[1],4.08 G/DL
same,ALKALINE PHOSPHATASE,[1],368.33 u/L
same,ASPARTATE AMINOTRANSFERASE,[1],87.5 u/L
same,BLOOD UREA NITROGEN,[1],12.83 mg/dL
same,CARBON DIOXIDE,[1],32.83 mmol/L
same,CHLORIDE,[1],99.67 MEQ/L
same,CHOLESTEROL,[1],79.67 mg/dL
same,CREATINE PHOSPHOKINASE,[1],585 u/L
same,CREATININE,[1],0.22 mg/dL
same,GLUCOSE,[1],135.67 mg/dL
same,LACTATE DEHYDROGENASE,[1],171 u/L
same,LIPASE,[1],9.5 u/L
same,PHOSPHORUS,[1],11.18 mg/dL
same,POTASSIUM,[1],6.25 MEQ/L
same,SODIUM,[1],144.87 MEQ/L
same,TOTAL BILIRUBIN,[1],0.2 mg/dL
same,TOTAL PROTEIN,[1],6.08 G/DL
same,URIC ACID,[1],0.65 mg/dL
same,ABSOLUTE BASOPHIL,[2],0 CELLS/uL
same,ABSOLUTE EOSINOPHIL,[2],14.5 CELLS/uL
same,ABSOLUTE LYMPHOCYTE,[2],7596.17 CELLS/uL
same,ABSOLUTE MONOCYTE,[2],69.67 CELLS/uL
same,ABSOLUTE SEGMENTED NEUTROPHIL,[2],503 CELLS/uL
same,BASOPHIL,[2],0%
same,EOSINOPHIL,[2],0.17%
same,ERYTHROCYTE COUNT,[2],5.49 x10E6/uL
same,HEMATOCRIT,[2],34.72%
same,HEMOGLOBIN,[2],13.47 G/DL
same,LEUKOCYTE COUNT,[2],8.18 x10E3/uL
same,LYMPHOCYTE,[2],92.17%
same,MEAN CORPUSCULAR HEMOGLOBIN,[2],24.57 pg
same,MEAN CORPUSCULAR HEMOGLOBIN CONCENTRATION,[2],38.82 G/DL
same,MEAN CORPUSCULAR VOLUME,[2],63.3 fL
same,MONOCYTE,[2],1%
same,NEUTROPHIL,[2],6.67%
same,NUCLEATED RED BLOOD CELLS,[2],0 /100WBC
same,PLATELET COUNT,[2],1141 x10E3/uL
same,ALANINE AMINOTRANSFERASE,[2],48.33 u/L
same,ALBUMIN,[2],4.07 G/DL
same,ALKALINE PHOSPHATASE,[2],395.67 u/L
same,ASPARTATE AMINOTRANSFERASE,[2],85.67 u/L
same,BLOOD UREA NITROGEN,[2],15.83 mg/dL
same,CARBON DIOXIDE,[2],31.33 mmol/L
same,CHLORIDE,[2],100.83 MEQ/L
same,CHOLESTEROL,[2],62.33 mg/dL
same,CREATINE PHOSPHOKINASE,[2],248.33 u/L
same,CREATININE,[2],0.2 mg/dL
same,GLUCOSE,[2],135.67 mg/dL
same,LACTATE DEHYDROGENASE,[2],141.33 u/L
same,LIPASE,[2],9.5 u/L
same,PHOSPHORUS,[2],10.73 mg/dL
same,POTASSIUM,[2],6.07 MEQ/L
same,SODIUM,[2],145.35 MEQ/L
same,TOTAL BILIRUBIN,[2],0.22 mg/dL
same,TOTAL PROTEIN,[2],6.12 G/DL
same,URIC ACID,[2],0.63 mg/dL
same,ABSOLUTE BASOPHIL,[3],0 CELLS/uL
same,ABSOLUTE EOSINOPHIL,[3],50.33 CELLS/uL
same,ABSOLUTE LYMPHOCYTE,[3],10617 CELLS/uL
same,ABSOLUTE MONOCYTE,[3],63 CELLS/uL
same,ABSOLUTE SEGMENTED NEUTROPHIL,[3],603 CELLS/uL
same,BASOPHIL,[3],0%
same,EOSINOPHIL,[3],0.33%
same,ERYTHROCYTE COUNT,[3],5.09 x10E6/uL
same,HEMATOCRIT,[3],32.27%
same,HEMOGLOBIN,[3],12.67 G/DL
same,LEUKOCYTE COUNT,[3],11.33 x10E3/uL
same,LYMPHOCYTE,[3],93.67%
same,MEAN CORPUSCULAR HEMOGLOBIN,[3],24.9 pg
same,MEAN CORPUSCULAR HEMOGLOBIN CONCENTRATION,[3],39.3 G/DL
same,MEAN CORPUSCULAR VOLUME,[3],63.33 fL
same,MONOCYTE,[3],0.67%
same,NEUTROPHIL,[3],5.33%
same,NUCLEATED RED BLOOD CELLS,[3],0 /100WBC
same,PLATELET COUNT,[3],1098.33 x10E3/uL
same,ALANINE AMINOTRANSFERASE,[3],65.67 u/L
same,ALBUMIN,[3],3.93 G/DL
same,ALKALINE PHOSPHATASE,[3],297.33 u/L
same,ASPARTATE AMINOTRANSFERASE,[3],89.67 u/L
same,BLOOD UREA NITROGEN,[3],12 mg/dL
same,CARBON DIOXIDE,[3],33.67 mmol/L
same,CHLORIDE,[3],98.33 MEQ/L
same,CHOLESTEROL,[3],74.67 mg/dL
same,CREATINE PHOSPHOKINASE,[3],369.33 u/L
same,CREATININE,[3],0.19 mg/dL
same,GLUCOSE,[3],134 mg/dL
same,LACTATE DEHYDROGENASE,[3],123 u/L
same,LIPASE,[3],11 u/L
same,PHOSPHORUS,[3],11.1 mg/dL
same,POTASSIUM,[3],5.93 MEQ/L
same,SODIUM,[3],144.17 MEQ/L
same,TOTAL BILIRUBIN,[3],0.13 mg/dL
same,TOTAL PROTEIN,[3],5.83 G/DL
same,URIC ACID,[3],0.53 mg/dL

# — ChEMBL document CHEMBL3885881, “DrugMatrix”
